Patent US12629382B2, “Therapy” (Vestlandets Innovasjonsselskap AS, priority 2019, dated 2026)

Legend:
A172 glioma cells = test: Intracellular GSH, GSH-Glo assay, A172 cells; format: cell-based; conditions: Homo sapiens, 48 h, normalized to untreated control; for activity at 250 µM: A 172, 250 μM compound, read-out: Intracellular GSH level A172 250 μM; for activity at 500 µM: A 172, 500 μM compound, read-out: Intracellular GSH level A172 500 μM
Method: (§1) The cancer cell lines A172, A375, U87 and MCF7 were purchased from American Type Culture Collection (ATCC; Manassas, Va., USA). Cells were cultured in Dulbecco's Modified Eagle's Medium (DMEM) supplemented with 10% fetal bovine serum, 2% v/v L-glutamine, 3.2% v/v non-essential amino acids, antibiotics 2% v/v (penicillin-streptomycin), and 0.02% v/v Plasmocin at 37° C. and 5% CO2.
(§2) xCT expression of cancer cell lines was evaluated by western blotting from protein samples of cell lysates as described in Sleire et al., Oncogene 34: 5951-5959, 2015. Protein concentrations were determined by BCA assay (Thermo Fisher Scientific, USA) followed by SDS PAGE and immunoblotting using rabbit anti-xCT (Thermo Fisher Scientific) and rabbit anti-GAPDH (Abcam, Cambridge, UK) as a loading control. The compounds were dissolved in dimethylsulfoxide (DMSO) (Sigma Aldrich, Germany) and stock concentrations of 100 mM were stored at −20° C. in aliquots. Final concentrations were made in growth medium before adding to the cell monolayers.
(§3) The compounds were evaluated based on the measurement of intracellular Glutathione (GSH) which was performed by the GSH-Glo assay (Promega, Madison, WI, USA, cat #V6912) according to the manufacturer's recommended procedures. 5000 cells per well were seeded in a flat bottomed 96-well plate. After attachment to the well surface, cells were exposed to 250 μM and 500 μM of each compound for 48 h. After that, GSH-Glo reagent was added followed by short incubation and addition of luciferin detection reagent. Bioluminescence was measured using a luminometer (Victor 3 1420 multi-label counter, Perkins Elmer, Waltham, MA, USA). IC50 doses for the compounds SAS, DC10 and DC14 were determined in A172 glioma cells, using the GraphPad Prism v6 software (GraphPad Software, Inc. CA, USA). All measurements were normalized to the untreated control and were performed three times.

xCT antiport = target: T1, xCT antiport (Homo sapiens, UniProt Q9UPY5); conditions: reported in the literature; cited from earlier work
T1 sequence (Q9UPY5 1-501): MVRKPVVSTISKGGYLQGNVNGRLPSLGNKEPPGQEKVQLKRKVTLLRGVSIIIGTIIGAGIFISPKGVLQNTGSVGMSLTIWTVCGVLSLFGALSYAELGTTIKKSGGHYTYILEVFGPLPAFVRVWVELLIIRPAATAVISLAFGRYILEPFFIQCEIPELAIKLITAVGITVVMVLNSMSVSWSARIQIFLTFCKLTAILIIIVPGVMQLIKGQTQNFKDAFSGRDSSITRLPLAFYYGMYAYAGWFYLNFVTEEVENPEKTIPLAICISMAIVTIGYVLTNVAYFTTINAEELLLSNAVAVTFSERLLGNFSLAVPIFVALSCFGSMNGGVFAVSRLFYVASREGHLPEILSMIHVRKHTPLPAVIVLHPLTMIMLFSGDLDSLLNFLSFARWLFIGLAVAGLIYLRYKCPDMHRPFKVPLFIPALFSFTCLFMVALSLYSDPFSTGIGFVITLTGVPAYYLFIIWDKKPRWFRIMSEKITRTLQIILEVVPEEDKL
T1 sequence (P08195 1-529 partner): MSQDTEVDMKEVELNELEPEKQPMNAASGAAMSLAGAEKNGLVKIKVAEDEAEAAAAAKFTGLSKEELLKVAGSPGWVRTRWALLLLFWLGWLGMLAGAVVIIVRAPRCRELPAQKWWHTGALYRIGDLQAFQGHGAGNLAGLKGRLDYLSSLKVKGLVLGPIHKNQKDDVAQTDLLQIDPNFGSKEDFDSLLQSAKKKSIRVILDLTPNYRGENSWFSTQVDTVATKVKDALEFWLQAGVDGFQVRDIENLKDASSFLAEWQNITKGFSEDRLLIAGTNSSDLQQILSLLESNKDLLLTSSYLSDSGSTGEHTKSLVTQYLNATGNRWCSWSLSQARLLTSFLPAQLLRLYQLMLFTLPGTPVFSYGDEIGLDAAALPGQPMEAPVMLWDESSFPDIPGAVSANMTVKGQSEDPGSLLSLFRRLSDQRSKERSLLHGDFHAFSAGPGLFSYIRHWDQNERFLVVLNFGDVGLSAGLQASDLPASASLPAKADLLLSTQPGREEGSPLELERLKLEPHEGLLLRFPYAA

A375 = test: Intracellular GSH, GSH-Glo assay, A375 cells; format: cell-based; conditions: Homo sapiens, 48 h, normalized to untreated control; for activity at 250 µM: A-375, 250 μM compound, read-out: Intracellular GSH level A375 250 μM; for activity at 500 µM: A-375, 500 μM compound, read-out: Intracellular GSH level A375 500 μM
Method: as §1, §2, §3

MCF7 = test: Intracellular GSH, GSH-Glo assay, MCF7 cells; format: cell-based; conditions: Homo sapiens, 48 h, normalized to untreated control; for activity at 250 µM: 250 μM compound, read-out: Intracellular GSH level MCF7 250 μM; for activity at 500 µM: 500 μM compound, read-out: Intracellular GSH level MCF7 500 μM
Method: as §1, §2, §3

U87 = test: Intracellular GSH, GSH-Glo assay, U87 cells; format: cell-based; conditions: Homo sapiens, U-87 MG, 48 h, normalized to untreated control; for activity at 250 µM: 250 μM compound, read-out: Intracellular GSH level U87 250 μM; for activity at 500 µM: 500 μM compound, read-out: Intracellular GSH level U87 500 μM
Method: as §1, §2, §3

[1] = Assessment of toxicity associated with DC10 in mice; format: in vivo; conditions: 16 mg by oral gavage, NOD/Scid mice, 24 or 48 hours
Source text: (§4) Experiments were approved by the Norwegian Animal Research Authority (Oslo, Norway) in accordance with the Guide for the Care and Use of Laboratory Animals (Institute for Laboratory Animal Research, National Research Council. Washington, D.C.: National Academy Press, 1996). NOD/Scid mice were kept at the animal facility at Department of Biomedicine at the University of Bergen. The animals were provided a standard pellet diet and tap water ad libitum. They were kept in a pathogen free environment at a constant temperature and humidity, and standard 12/12 h light and dark cycle.
DC10 was dissolved in distilled water and administered as a slurry by oral gavage. 16 mg was administered in a volume of 0.2 ml to each animal. […] Blood was sampled through heart puncture with a 3 ml syringe and 0.75 to 1 ml blood was collected. 250 μl was transferred to EDTA tubes that were tilted 15 times to avoid coagulation. The remaining volumes were transferred to 1.5 ml cryotubes and left to coagulate for 3 minutes before centrifugation at 2200 RCF for 10 minutes. This was followed by transfer of the supernatant to new cryotubes that were kept at −20° C., then thawed immediately prior to analysis at the clinical laboratory at Haukeland University Hospital. Blood collected on EDTA tubes underwent hematological analyses, whereas serum underwent biochemical analyses. Organs were also harvested, fixed on 4% formalin embedded in paraffin, sectioned and stained with hematoxylin and esosin.

A375 melanoma cells = test: Validation of DC10 as a radiosensitizer in vivo, subcutaneous A375 tumours; set-up: species or system NOD/Scid mice; conditions: DC10+RT: 8 mg DC10 on day 14, 4 Gy radiation at day 15, compared with control, DC10 alone
Source text: as §4
In this study 20 NOD/Scid mice were grafted with A375 melanoma cells. The A375 cell line was maintained in incubators at 37° C. and 5% CO2 prior to use in the animal experiment. A375 was cultured in DMEM (Sigma-Aldrich, St-Louis, MO, USA) with the supplement of 10% fetal bovine serum (FBS), 3.2% non-essential amino acids, 100 units/mL Penicillin/Streptomycin, […] L-glutamine (all Lonza, Cologne, Germany). Cells were passaged in vitro in medium sized 75 cm^2 culture flasks. […]
For induction of subcutaneous tumours, 5×10^5 A375 cells were injected in the right flank of 20 NOD/SCID mice, and the animals were randomly assigned to 4 groups with […]. […] Tumour growth data for the treatment groups and different time points were analysed with repeated measures for 2-way Anova analysis.

In the case of `O=C(O)c1cc(/N=N/c2ccc(S(=O)(=O)Nc3ccccn3)cc2)ccc1O` [SAS, Sulfasalazine, reference compound], the activity at 250 µM (A172 glioma cells) is given as 15%, the activity at 500 µM (A172 glioma cells) is given as 2.1% and the xCT activity (xCT antiport) is given as “blocking the cell membrane xCT antiport”. The activity at 250 µM (A375) was 13.5%, the activity at 500 µM (A375) was 5.3% and the activity at 250 µM (MCF7) was 26.2%. It also gave an activity at 500 µM (MCF7) of 7.6%, an activity at 250 µM (U87) of 14% and an activity at 500 µM (U87) of 8%.

For `Nc1ccc(S(=O)(=O)Nc2ccccn2)cc1` [sulfapyridine, 4-amino-N-(pyridin-2-yl)benzenesulfonamide], the xCT activity (xCT antiport) is listed as “without xCT activity”.

`O=C(O)c1cc(/C=C/c2ccc(-c3ccccc3)cc2)ccc1O` [DC10, (E)-5-(2-([1,1′-biphenyl]-4-yl)vinyl)-2-hydroxybenzoic acid] gave an activity at 250 µM (A172 glioma cells) of 10.4%, an activity at 500 µM (A172 glioma cells) of 2.3% and an activity at 250 µM (A375) of 27.6%. The activity at 500 µM (A375) was 3.1%, the Clinical inspection [1] was “did not reveal any signs, symptoms or deficits” and the “Hematological analysis: hemoglobin, thrombocytes and leukocytes” value [1] was “normal”. The “Histopathological examination of organs” value [1] was “did not show evidence of inflammation or other signs of tissue injury”, the “Macroscopic inspection of brain, lungs, heart, intestines, liver, kidneys and spleen” value [1] was “appeared normal” and the “Biochemical blood analysis: S-Kreatinin, γ-GT, S-ASAT, S-ALAT, Amylase, S-Glukose” value ([1]; serum) was “no significant elevation in S-Kreatinin (Kidney function), or shift in γ-GT, S-ASAT, S-ALAT, Amylase and S-Glukose”. For the same molecule, the “Tumour volume versus the other groups” value (A375 melanoma cells) was “significantly smaller”, the activity at 250 µM (MCF7) was 28% and the activity at 500 µM (MCF7) was 10.9%. The activity at 250 µM (U87) was 76.1% and the activity at 500 µM (U87) was 7.3%.

For `Nc1ccc(O)c(C(=O)O)c1` [mesalazine, 5-amino-2-hydroxybenzoic acid], the xCT activity (xCT antiport) is listed as “without xCT activity”.
